Source: patent publication US8324346B2, “Bioactive keratin peptides” (Keraplast Technologies, Ltd., priority 2002, dated 2012)

System: Normal human adult dermal fibroblasts
Assay: Cell Titer96 Cell Proliferation Assay: mitogenic effects of synthesized peptides on human fibroblasts in culture for 5 days
Type: cell-based
Details: normalized to baseline controls
Description: Normal human adult dermal fibroblasts were cultured in fibroblast growth medium (Clonetics™/BioWhittaker, San Diego, Calif., USA). Passage 5 cells were seeded into wells of 96 well plates at 5×10^3 cells/well. Test peptide solutions were prepared at approximately 1.5 mg/ml in sterile water. Small volumes of 0.1N NH4OH were added dropwise to peptide the peptide solutions to completely solubilize the peptides as recommended by the manufacturer (New England Peptide, Inc., Fitchburg, Miss., USA). The volume of NH4OH added to the solution was recorded and used to adjust beginning concentration. Solutions were serially diluted in fibroblast culture medium from 100-0.001 μg/ml, then added to the cells and cultured for 5 days. At day 3, test and control media were removed from each well by vacuum and replaced with fresh test or control solutions. Samples were evaluated in 4 replicate wells. Note in each plate, wells were selected at random to be used as baseline controls to account for any variation in cell seeding between plates. After 5 days, cell proliferation was assessed spectrophotometrically using the Cell Titer96® Cell Proliferation Assay (Promega Corp., Madison, Wis., USA). Absorbance values were normalized to baseline controls and expressed as percent increased (positive values) or decreased (negative values) proliferation.

## AAPTV (Consensus peptide) [H2N-AAPTV-OH]
  percent increased (positive values) or decreased (negative values) proliferation, concentration 0.001 ug/mL: 11.0%
  percent increased (positive values) or decreased (negative values) proliferation, concentration 0.01 ug/mL: −0.2%
  percent increased (positive values) or decreased (negative values) proliferation, concentration 0.1 ug/mL: 0.3%
  percent increased (positive values) or decreased (negative values) proliferation, concentration 1 ug/mL: 2.8%
  percent increased (positive values) or decreased (negative values) proliferation, concentration 10 ug/mL: −5.9%
  percent increased (positive values) or decreased (negative values) proliferation, concentration 100 ug/mL: −5.9%

## AAPTVD (Consensus peptide) [H2N-AAPTVD-OH]
  percent increased (positive values) or decreased (negative values) proliferation, concentration 0.001 ug/mL: 11.6%
  percent increased (positive values) or decreased (negative values) proliferation, concentration 0.01 ug/mL: 7.9%
  percent increased (positive values) or decreased (negative values) proliferation, concentration 0.1 ug/mL: −1.1%
  percent increased (positive values) or decreased (negative values) proliferation, concentration 1 ug/mL: 1.7%
  percent increased (positive values) or decreased (negative values) proliferation, concentration 10 ug/mL: −2.0%
  percent increased (positive values) or decreased (negative values) proliferation, concentration 100 ug/mL: 1.6%

## APTVDLN (Consensus peptide) [H2N-APTVDLN-OH]
  percent increased (positive values) or decreased (negative values) proliferation, concentration 0.001 ug/mL: 1.2%
  percent increased (positive values) or decreased (negative values) proliferation, concentration 0.01 ug/mL: 3.9%
  percent increased (positive values) or decreased (negative values) proliferation, concentration 0.1 ug/mL: 2.8%
  percent increased (positive values) or decreased (negative values) proliferation, concentration 1 ug/mL: −6.0%
  percent increased (positive values) or decreased (negative values) proliferation, concentration 10 ug/mL: 8.1%
  percent increased (positive values) or decreased (negative values) proliferation, concentration 100 ug/mL: 6.7%

## DAAPTV (Consensus peptide) [H2N-DAAPTV-OH]
  percent increased (positive values) or decreased (negative values) proliferation, concentration 0.001 ug/mL: −3.0%
  percent increased (positive values) or decreased (negative values) proliferation, concentration 0.01 ug/mL: 9.5%
  percent increased (positive values) or decreased (negative values) proliferation, concentration 0.1 ug/mL: 7.5%
  percent increased (positive values) or decreased (negative values) proliferation, concentration 1 ug/mL: 3.5%
  percent increased (positive values) or decreased (negative values) proliferation, concentration 10 ug/mL: −6.1%
  percent increased (positive values) or decreased (negative values) proliferation, concentration 100 ug/mL: −2.7%

## DLNQ (Consensus peptide) [H2N-DLNQ-OH]
  percent increased (positive values) or decreased (negative values) proliferation, concentration 0.001 ug/mL: 15.9%
  percent increased (positive values) or decreased (negative values) proliferation, concentration 0.01 ug/mL: 8.9%
  percent increased (positive values) or decreased (negative values) proliferation, concentration 0.1 ug/mL: 2.6%
  percent increased (positive values) or decreased (negative values) proliferation, concentration 1 ug/mL: −0.8%
  percent increased (positive values) or decreased (negative values) proliferation, concentration 10 ug/mL: −0.7%
  percent increased (positive values) or decreased (negative values) proliferation, concentration 100 ug/mL: −3.6%

## DLNRVL (Consensus peptide) [H2N-DLNRVL-OH]
  percent increased (positive values) or decreased (negative values) proliferation, concentration 0.001 ug/mL: 14.4%
  percent increased (positive values) or decreased (negative values) proliferation, concentration 0.01 ug/mL: 11.5%
  percent increased (positive values) or decreased (negative values) proliferation, concentration 0.1 ug/mL: −0.4%
  percent increased (positive values) or decreased (negative values) proliferation, concentration 1 ug/mL: −2.8%
  percent increased (positive values) or decreased (negative values) proliferation, concentration 10 ug/mL: −3.5%
  percent increased (positive values) or decreased (negative values) proliferation, concentration 100 ug/mL: −1.2%

## DTAPTV (Consensus peptide) [H2N-DTAPTV-OH]
  percent increased (positive values) or decreased (negative values) proliferation, concentration 0.001 ug/mL: 3.2%
  percent increased (positive values) or decreased (negative values) proliferation, concentration 0.01 ug/mL: 2.5%
  percent increased (positive values) or decreased (negative values) proliferation, concentration 0.1 ug/mL: 6.7%
  percent increased (positive values) or decreased (negative values) proliferation, concentration 1 ug/mL: 2.9%
  percent increased (positive values) or decreased (negative values) proliferation, concentration 10 ug/mL: 2.2%
  percent increased (positive values) or decreased (negative values) proliferation, concentration 100 ug/mL: 7.6%

## EVDAAPT (Consensus peptide) [H2N-EVDAAPT-OH]
  percent increased (positive values) or decreased (negative values) proliferation, concentration 0.001 ug/mL: 6.5%
  percent increased (positive values) or decreased (negative values) proliferation, concentration 0.01 ug/mL: 8.9%
  percent increased (positive values) or decreased (negative values) proliferation, concentration 0.1 ug/mL: 5.4%
  percent increased (positive values) or decreased (negative values) proliferation, concentration 1 ug/mL: 7.1%
  percent increased (positive values) or decreased (negative values) proliferation, concentration 10 ug/mL: 16.5%
  percent increased (positive values) or decreased (negative values) proliferation, concentration 100 ug/mL: 4.1%

## LGDRL (Consensus peptide) [H2N-LGDRL-OH]
  percent increased (positive values) or decreased (negative values) proliferation, concentration 0.001 ug/mL: 10.3%
  percent increased (positive values) or decreased (negative values) proliferation, concentration 0.01 ug/mL: 0.0%
  percent increased (positive values) or decreased (negative values) proliferation, concentration 0.1 ug/mL: 0.6%
  percent increased (positive values) or decreased (negative values) proliferation, concentration 1 ug/mL: −4.8%
  percent increased (positive values) or decreased (negative values) proliferation, concentration 10 ug/mL: −3.1%
  percent increased (positive values) or decreased (negative values) proliferation, concentration 100 ug/mL: −3.8%

## LNVEV (Consensus peptide) [H2N-LNVEV-OH]
  percent increased (positive values) or decreased (negative values) proliferation, concentration 0.001 ug/mL: −1.0%
  percent increased (positive values) or decreased (negative values) proliferation, concentration 0.01 ug/mL: 0.9%
  percent increased (positive values) or decreased (negative values) proliferation, concentration 0.1 ug/mL: −10.8%
  percent increased (positive values) or decreased (negative values) proliferation, concentration 1 ug/mL: −11.4%
  percent increased (positive values) or decreased (negative values) proliferation, concentration 10 ug/mL: 15.9%
  percent increased (positive values) or decreased (negative values) proliferation, concentration 100 ug/mL: 13.9%

## RLNVEV (Consensus peptide) [H2N-RLNVEV-OH]
  percent increased (positive values) or decreased (negative values) proliferation, concentration 0.001 ug/mL: −2.6%
  percent increased (positive values) or decreased (negative values) proliferation, concentration 0.01 ug/mL: −6.0%
  percent increased (positive values) or decreased (negative values) proliferation, concentration 0.1 ug/mL: −4.3%
  percent increased (positive values) or decreased (negative values) proliferation, concentration 1 ug/mL: 1.9%
  percent increased (positive values) or decreased (negative values) proliferation, concentration 10 ug/mL: 6.4%
  percent increased (positive values) or decreased (negative values) proliferation, concentration 100 ug/mL: 10.6%

## SPLGD (Consensus peptide) [H2N-SPLGD-OH]
  percent increased (positive values) or decreased (negative values) proliferation, concentration 0.001 ug/mL: 11.8%
  percent increased (positive values) or decreased (negative values) proliferation, concentration 0.01 ug/mL: 1.7%
  percent increased (positive values) or decreased (negative values) proliferation, concentration 0.1 ug/mL: −4.2%
  percent increased (positive values) or decreased (negative values) proliferation, concentration 1 ug/mL: 1.5%
  percent increased (positive values) or decreased (negative values) proliferation, concentration 10 ug/mL: −1.2%
  percent increased (positive values) or decreased (negative values) proliferation, concentration 100 ug/mL: −4.3%

## TAPTV (Consensus peptide) [H2N-TAPTV-OH]
  percent increased (positive values) or decreased (negative values) proliferation, concentration 0.001 ug/mL: 5.2%
  percent increased (positive values) or decreased (negative values) proliferation, concentration 0.01 ug/mL: −1.2%
  percent increased (positive values) or decreased (negative values) proliferation, concentration 0.1 ug/mL: 9.4%
  percent increased (positive values) or decreased (negative values) proliferation, concentration 1 ug/mL: 8.2%
  percent increased (positive values) or decreased (negative values) proliferation, concentration 10 ug/mL: −2.7%
  percent increased (positive values) or decreased (negative values) proliferation, concentration 100 ug/mL: 0.7%

## TAPTVD (Consensus peptide) [H2N-TAPTVD-OH]
  percent increased (positive values) or decreased (negative values) proliferation, concentration 0.001 ug/mL: 0.3%
  percent increased (positive values) or decreased (negative values) proliferation, concentration 0.01 ug/mL: −0.9%
  percent increased (positive values) or decreased (negative values) proliferation, concentration 0.1 ug/mL: −0.5%
  percent increased (positive values) or decreased (negative values) proliferation, concentration 1 ug/mL: 2.1%
  percent increased (positive values) or decreased (negative values) proliferation, concentration 10 ug/mL: 4.0%
  percent increased (positive values) or decreased (negative values) proliferation, concentration 100 ug/mL: 6.9%

## TLRSP (Consensus peptide) [H2N-TLRSP-OH]
  percent increased (positive values) or decreased (negative values) proliferation, concentration 0.001 ug/mL: 4.7%
  percent increased (positive values) or decreased (negative values) proliferation, concentration 0.01 ug/mL: 1.9%
  percent increased (positive values) or decreased (negative values) proliferation, concentration 0.1 ug/mL: 7.7%
  percent increased (positive values) or decreased (negative values) proliferation, concentration 1 ug/mL: 6.6%
  percent increased (positive values) or decreased (negative values) proliferation, concentration 10 ug/mL: 14.7%
  percent increased (positive values) or decreased (negative values) proliferation, concentration 100 ug/mL: 18.8%

## VDAAPT (Consensus peptide) [H2N-VDAAPT-OH]
  percent increased (positive values) or decreased (negative values) proliferation, concentration 0.001 ug/mL: 1.6%
  percent increased (positive values) or decreased (negative values) proliferation, concentration 0.01 ug/mL: 2.9%
  percent increased (positive values) or decreased (negative values) proliferation, concentration 0.1 ug/mL: −3.6%
  percent increased (positive values) or decreased (negative values) proliferation, concentration 1 ug/mL: 4.5%
  percent increased (positive values) or decreased (negative values) proliferation, concentration 10 ug/mL: 6.2%
  percent increased (positive values) or decreased (negative values) proliferation, concentration 100 ug/mL: 13.3%

## VDTAPT (Consensus peptide) [H2N-VDTAPT-OH]
  percent increased (positive values) or decreased (negative values) proliferation, concentration 0.001 ug/mL: 9.0%
  percent increased (positive values) or decreased (negative values) proliferation, concentration 0.01 ug/mL: 4.2%
  percent increased (positive values) or decreased (negative values) proliferation, concentration 0.1 ug/mL: 6.8%
  percent increased (positive values) or decreased (negative values) proliferation, concentration 1 ug/mL: 2.5%
  percent increased (positive values) or decreased (negative values) proliferation, concentration 10 ug/mL: −0.1%
  percent increased (positive values) or decreased (negative values) proliferation, concentration 100 ug/mL: 4.4%

## VDTAPTV (Consensus peptide) [H2N-VDTAPTV-OH]
  percent increased (positive values) or decreased (negative values) proliferation, concentration 0.001 ug/mL: 10.4%
  percent increased (positive values) or decreased (negative values) proliferation, concentration 0.01 ug/mL: 7.9%
  percent increased (positive values) or decreased (negative values) proliferation, concentration 0.1 ug/mL: 1.2%
  percent increased (positive values) or decreased (negative values) proliferation, concentration 1 ug/mL: 0.7%
  percent increased (positive values) or decreased (negative values) proliferation, concentration 10 ug/mL: 5.5%
  percent increased (positive values) or decreased (negative values) proliferation, concentration 100 ug/mL: −5.5%

## VEVDAA (Consensus peptide) [H2N-VEVDAA-OH]
  percent increased (positive values) or decreased (negative values) proliferation, concentration 0.001 ug/mL: 11.0%
  percent increased (positive values) or decreased (negative values) proliferation, concentration 0.01 ug/mL: 2.3%
  percent increased (positive values) or decreased (negative values) proliferation, concentration 0.1 ug/mL: −9.0%
  percent increased (positive values) or decreased (negative values) proliferation, concentration 1 ug/mL: −4.7%
  percent increased (positive values) or decreased (negative values) proliferation, concentration 10 ug/mL: −1.3%
  percent increased (positive values) or decreased (negative values) proliferation, concentration 100 ug/mL: −9.5%
